We go through four compounds from patent US5444070A, “Phenyl substituted heterocyclic compounds” (NeuroSearch A/S, priority 1992, dated 1995).

The subject of data set [1] is reuptake of dopamine in synaptosomes of rat forebrain. In words: inhibition of dopamine reuptake in synaptosomes of rat forebrain. The settings on record: 3H-dopamine 1×10^-9 M, 10 min at 37° C., male Wistar rat forebrain synaptosomes; read-out: Dopamine reuptake inhibiting activity (IC50). Format: biochemical.
Protocol: Fresh whole forebrain (at 0°-4° C.) from male Wistar rats (150-200 g) is homogenized in a glass homogenizer with a teflon pestle in 20×volumes 0.32M sucrose. The homogenate is centrifuged at 1000×g (~2900 rpm) for 10 min. The pellet is discarded and the supernatant is used for uptake assays.
A Krebs Buffer (119 mM NaCl, 24 mM NaHCO3, 2.1 mM KCl, 1.2 mM KH2 PO4, 1.8 mM CaCl2, 2 mM MgSO4,7H2 O, 12 mM glucose) is equilibrated with an atmosphere of 96% O2 : 4% CO2 for at least 60 min at 37° C. To 5 ml Krebs-buffer 100 μl of the radioactivity is added (3H-dopamine 1×10^-9 M final concentration) and 100 μl test substance solution and 200 μl of tissue suspension. The samples are thoroughly mixed and incubated 10 min at 37° C. followed by 2 min at 0° C. After incubation the samples are poured directly onto Whatman GF/C glass fibre filters under suction and immediately washed with 2×5 ml ice-cold 0.9% saline (NaCl) buffer. To the filter is added 3 ml of scintillation fluid, and the amount of radioactivity on the filters is determined by conventional liquid scintillation counting.
Data set [2] has as its system abnormal stereotyped behaviour. Kind of data set: abnormal stereotyped behaviour. Format: in vivo, rat. The settings on record: at every relevant dosing level tested. The text has this: Backward locomotion may occasionally be observed.
+=only stereotyped sniffing
++=stereotyped sniffing and episodic licking
+++=Continuous licking and/or biting gnawing

Molecules are shown by their SMILES.

Turning to `Cc1ccc([C@H]2C[C@@H]3CC[C@H]([C@@H]2c2nc(-c4ccccc4)no2)N3C)cc1` [(1R,2R,3S)-2-(3-phenyl-1,2,4-oxadiazol-5-yl)-3-(4-methylphenyl)-tropane], the IC50 (commonly the concentration at which inhibition is half-maximal) in data set [1] came out at 960 nM. As to `COC(=O)[C@@H]1[C@@H](c2ccc(F)cc2)C[C@@H]2CC[C@H]1N2C` [trans isomer of Win 35,428, (1R,2R,3S)-2-carbomethoxy-3-(4-fluorophenyl)tropane, reference compound], the “side effects: abnormal stereotyped behaviour” value in data set [2] is given as “essentially or totally devoid of side effects”.

On to `CN1[C@H]2CC[C@@H]1[C@H](c1nc(-c3ccccc3)no1)[C@@H](c1ccc(Cl)cc1)C2` [(1R,2R,3S)-2-(3-phenyl-1,2,4-oxadiazol-5-yl)-3-(4-chlorophenyl)-tropane], for which the IC50 in data set [1] was determined as 330 nM. Consider `CN1[C@H]2CC[C@@H]1[C@H](c1nc(-c3ccccc3)no1)[C@@H](c1ccc3ccccc3c1)C2` [(1R,2R,3S)-2-(3-phenyl-1,2,4-oxadiazol-5-yl)-3-(2-naphthyl)-tropane], for which the half-inhibitory concentration (IC50) in data set [1] is 540 nM.
